“Also recorded” adds a separate entry of the source.
Tests used:
[1] = test system: differentiated PC12 cells; experiment: Time-lapse recording of mitochondrial motility and morphology in neurites of differentiated PC12 cells (exogenous agents); details: for mitochondrial motility, increase: nimodipine 5 μM together with AP5 50 μM, with or without apoE forms
Neuro-2a cells = experiment: MTT cell survival assay of Neuro-2a cells transiently transfected with apoE4 cDNA constructs; assay type: cell-based, mouse; details: expressed in Neuro-2a cells, MTT assay 48 h after transfection
Description: Cell Culture and Transfection. […] ApoE4 expression levels were determined by anti-apoE western blotting of cell lysates and media. […] Thus, the results are not due to overexpression.
Cell Survival. […] Cell survival was estimated with an MTT colorimetric assay (52) 48 h after transfection.

[2] = test system: rat primary hippocampal neurons; experiment: Dendritic spine density (EGFP-β-actin, confocal microscopy) in primary hippocampal neurons; assay type: cell-based; details: apoE 7.5 μg/ml, 24 h
Description: (§1) Cortices or hippocampi from neonatal rat pups were dissected and treated with papain (10 units ml^−1, 30 min; Worthington Biochemical, Lakewood, N.J.) and the with trypsin inhibitor (10 mg ml^−1, 15 min). Dissociated neurons were plated on 12-mm glass coverslips (Fisher Scientific, Hampton, N.H.) (8×10^5 cells per cm^2) coated with poly-L-lysine. After 2 h, cells were transferred into Neurobasal medium supplemented with B27, 1 mM L-glutamine, and 100 μg/ml penicillin/streptomycin (Invitrogen). Neurons were routinely transfected after 10 days in culture and used for experiments 5-7 days after transfection. Cells were maintained in a humidified incubator with 5% CO2 at 37° C.
(§2) Confocal Microscopy. Cultured primary neurons treated with various forms of apoE were fixed for 20 min in ice-cold 4% paraformaldehyde in PBS and mounted with Vectashield (Vector Laboratories Burlingame, Calif.). Digital images of EGFP and dsRed fluorescence in primary neurons were collected on a laser-scanning confocal microscope with a Bio-Rad Radiance 2000 scanhead (Bio-Rad, Hercules, Calif.) mounted on a BX60 microscope (Olympus, Melville, N.Y.) with a 60× oil objective.
To assess the effect of exogenous apoE on dendritic spine density, rat primary cortical and hippocampal neurons, which had been cultured for 14-17 days in vitro, were incubated with different forms of apoE (7.5 μg/ml) for 24 h. […]

[3] = test system: rat primary cortical neurons; experiment: Dendritic spine density (EGFP-β-actin, confocal microscopy) in primary cortical neurons; assay type: cell-based
Description: as §1
Neuronal activation and inhibition.
as §2
To assess the effect of exogenous apoE on dendritic spine density, rat primary cortical and hippocampal neurons, which had been cultured for 14-17 days in vitro, were incubated with different forms of apoE (7.5 μg/ml) for 24 h. Four to six days before the experiment, the cells were transfected with EGFP-tagged β-actin (EGFP-β-actin), a cytoskeletal protein that is abundant in dendritic spines. […] Other measures of neuronal complexity (e.g., dendritic field and length of dendritic extensions) were not affected by any form of apoE. […] FIGS. 12A and 12B. […] (a) Confocal micrographs of synaptic EGFP-β-actin fluorescence in dendrites of rat primary cortical and hippocampal neurons (16 days in vitro) incubated for 24 h with or without (control) various forms of apoE (7.5 μg/ml). Scale bar=5 μm. (b) Number of spines per μm of dendritic extension. […]

[4] = test system: dendrites of primary cortical neurons; experiment: Number, size and occupancy of mitochondria in dendrites of primary cortical neurons; assay type: cell-based, rat; details: primary neurons treated with apoE
[5] = repetitive depolarization with KCl 90 mM, 4×3 min
[6] = cortical neurons, apoE 7.5 μg/ml, 24 h

`NC(CCCP(=O)(O)O)C(=O)O` (centres unmarked) [AP5, 2-amino-5-phosphonovalerate] was tested, and the “mitochondrial motility, increase” value ([1]; 24 h) was “about 30%”.

“L279Q: full-length WT apoE4 with single mutation L279Q” was tested, and the neurotoxicity (Neuro-2a cells) was “as neurotoxic as apoE4(1-272)”.

“Q284A: full-length WT apoE4 with single mutation Q284A” was tested, and the neurotoxicity (Neuro-2a cells) was “as neurotoxic as apoE4(1-272)”.

With `COCCOC(=O)C1=C(C)NC(C)=C(C(=O)OC(C)C)C1c1cccc([N+](=O)[O-])c1` (centres unmarked) [nimodipine] the “mitochondrial motility, increase” value ([1]; 24 h) was “about 30%”.

With `[Cl-].[K+]` [KCl] the “average moving velocity (moving distance/15 min) in the anterograde direction” value [1, 5] was “drastically reduced”, the “mitochondrial moving velocity (moving distance/time moving)” value [1, 5] was “unaltered; also recorded: did not affect” and the “net moving distance in the anterograde direction” value [1, 5] was “drastically reduced”. For the same molecule, the “retrograde motility (toward the soma)” value [1, 5] was “No significant changes” and the “mitochondrial index, reduced” value ([1]; repetitive depolarizations with KCl (4×, 90 mM)) was 22.5%.

`NC1=N[C@H](O)[C@H]2[C@H]3O[C@]4(O)O[C@@H]([C@@H](O)[C@@]2(N1)[C@@H]4O)[C@]3(O)CO` [TTX, tetrodotoxin] was tested, and the mitochondrial dynamics [1] was “increased” and the mitochondrial index [1] was “without affecting; also recorded: not affected”.

With “apoE4: Human apolipoprotein E4 isoform, 299 amino acids (SEQ ID NO:1); recombinant or expressed” the “density of dendritic spines, decrease compared with controls” value [2] was 19±5%, the “density of dendritic spines, reduction compared with apoE3” value [2] was 28±4% and the “density of dendritic spines, decrease compared with controls” value [3, 6] was 13±5%. For the same molecule, the “density of dendritic spines, reduction compared with apoE3” value [3, 6] was 27±5%, the “spinal density in response to neuronal activation, reduced as compared to controls” value ([3]; primary cortical neurons, apoE 7.5 μg/ml 24 h, repetitive KCl depolarization) was 48±11% and the “number of mitochondria at dendritic spines compared with apoE3-treated cells or controls” value [4] was “many fewer”. For the same molecule, the “extent of the mitochondrial motility response to neuronal activation, reduced to” value ([1]; apoE 7.5 μg/ml 24 h, then repetitive depolarizations with KCl) was 30%, the average mitochondrial length ([1]; exogenous apoE 7.5 μg/ml, 24 h) was “significantly reduced” and the “retrograde velocity / retrograde direction motility” value ([1]; exogenous apoE 7.5 μg/ml, 24 h) was “unaffected”.
